*1 amine or outer side, *2 acyl side, *3 side chain or, on linkers, in order; H or OH if unused. Where a SMILES comes first, the peptide text is derived from it. Bridges are numbered along the chain shown (N, C = ends). [ ]: non-standard residue; d: D form. The star is where a group is joined. hPhe(3-Cl-4-CF3) = N[C@@H](CCc1ccc(C(F)(F)F)c(Cl)c1)C(=O)O; NPrPhe(4-CF3) = CCCN[C@@H](Cc1ccc(C(F)(F)F)cc1)C(=O)O; NEtPhe(4-Me) = CCN[C@@H](Cc1ccc(C)cc1)C(=O)O; X4 = CCCN([C@@H](COCCC(C)C)C(=O)[*:2])[*:1]; NMeGly(cPent) = CN[C@H](C(=O)O)C1CCCC1; Gly(cBu) = N[C@H](C(=O)O)C1CCC1; NMeD = CN[C@@H](CC(=O)O)C(=O)O; NMeL = CN[C@@H](CC(C)C)C(=O)O; NMeV = CN[C@H](C(=O)O)C(C)C; Morpholide = C1CN(*)CCO1; NMeA = CN[C@@H](C)C(=O)O; Ac5c = NC1(C(=O)O)CCCC1; Aze = O=C(O)[C@@H]1CCN1; Ac4c = NC1(C(=O)O)CCC1; Sar = CNCC(=O)O
Key:
[1] = target: GDP-bound NRAS wild-type protein (Homo sapiens, UniProt P01111); assay: Binding to NRAS by surface plasmon resonance (SPR), Single Cycle Kinetics; conditions: SPR; for NRAS/KRAS (ratio of KD value with respect to NRAS to KD value with respect to KRAS) / NRAS/KRAS (ratio of KD value for NRAS to KD value for KRAS): GDP-bound NRAS wild-type vs GDP-bound KRAS wild-type
Sequence of GDP-bound NRAS wild-type protein (P01111 whole entry): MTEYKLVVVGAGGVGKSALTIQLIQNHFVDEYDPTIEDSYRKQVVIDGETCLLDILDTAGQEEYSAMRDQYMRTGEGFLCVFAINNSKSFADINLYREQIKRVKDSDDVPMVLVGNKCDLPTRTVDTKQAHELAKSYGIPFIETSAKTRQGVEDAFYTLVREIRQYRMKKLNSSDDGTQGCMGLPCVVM

[2] = target: GDP-bound HRAS wild-type protein (Homo sapiens, UniProt P01112); assay: Binding to HRAS by surface plasmon resonance (SPR), Single Cycle Kinetics; conditions: SPR; for HRAS/KRAS (ratio of KD value with respect to HRAS to KD value with respect to KRAS) / HRAS/KRAS (ratio of KD value for HRAS to KD value for KRAS): GDP-bound HRAS wild-type vs GDP-bound KRAS wild-type
Sequence of GDP-bound HRAS wild-type protein (P01112 whole entry): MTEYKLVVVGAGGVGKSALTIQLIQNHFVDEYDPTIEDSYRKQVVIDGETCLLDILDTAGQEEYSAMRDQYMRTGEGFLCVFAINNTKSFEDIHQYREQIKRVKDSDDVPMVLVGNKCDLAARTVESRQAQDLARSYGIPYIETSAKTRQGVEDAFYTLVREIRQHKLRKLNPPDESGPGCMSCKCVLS

CC[C@H](C)[C@@H]1NC(=O)[C@H](CC(C)C)N(C)C(=O)C[C@@H](C(=O)N2CCOCC2)N(C)C(=O)[C@H](C(C)C)N(C)C(=O)C2(CCCC2)NC(=O)[C@@H]2CCCN2C(=O)[C@H](CCc2ccc(C(F)(F)F)c(Cl)c2)NC(=O)CN(C)C(=O)[C@H](Cc2ccc(C)cc2)N(CC)C(=O)[C@@H]2CCN2C(=O)[C@H](C)N(C)C1=O [PP0015] ([NMeL]I[NMeA][Aze][NEtPhe(4-Me)][Sar][hPhe(3-Cl-4-CF3)]P[Ac5c][NMeV][NMeD]-Morpholide; lactam N-11)
NRAS/KRAS (ratio of KD for GDP-bound NRAS wild-type to KD for KRAS) ([1]; KD ratio NRAS/KRAS): C (A compound having a KD ratio of 0.1 or more and less than 3 is denoted as C)
HRAS/KRAS (ratio of KD for GDP-bound HRAS wild-type to KD for KRAS) ([2]; KD ratio HRAS/KRAS): C (A compound having a KD ratio of 0.1 or more and less than 3 is denoted as C)

CCC[C@H]1C(=O)N[C@@H](C2CCCC2)C(=O)N(C)CC(=O)N(C)[C@H]2C/C=C\CCN(C2=O)[C@@H](Cc2ccc(C)cc2)C(=O)N(C)CC(=O)N[C@@H](CCc2ccc(C(F)(F)F)c(Cl)c2)C(=O)N2C[C@H](OCC)C[C@H]2C(=O)NC2(CC(C)(C)C2)C(=O)N(C)[C@@H](C2CCCC2)C(=O)N(C)[C@H](C(=O)N(C)C)CC(=O)N1C [PP2198]
NRAS/KRAS (ratio of KD value with respect to NRAS to KD value with respect to KRAS) [1]: A (a compound having 10 or more and less than 20 is denoted as A)
HRAS/KRAS (ratio of KD value with respect to HRAS to KD value with respect to KRAS) [2]: A (a compound having 10 or more and less than 20 is denoted as A)

CC[C@H](C)[C@@H]1NC(=O)[C@H](CC)N(C)C(=O)C[C@@H](C(=O)N(C)C)N(C)C(=O)[C@H](C2CCCC2)N(C)C(=O)C2(CC(C)(C)C2)NC(=O)[C@H](CC)N(C)C(=O)[C@H](CCc2cc(F)c(C(F)(F)F)c(F)c2)NC(=O)CN(C)C(=O)[C@H](Cc2ccc(C(F)(F)F)cc2)N2CC/C=C\C[C@@H](C2=O)N(C)C(=O)CN(C)C1=O [PP1935]
NRAS/KRAS (ratio of KD value for NRAS to KD value for KRAS) ([1]; KD ratio): A (a compound having 10 or more and less than 20 is denoted as A)
HRAS/KRAS (ratio of KD value for HRAS to KD value for KRAS) ([2]; KD ratio): A (a compound having 10 or more and less than 20 is denoted as A)

CCO[C@@H]1C[C@H]2C(=O)NC3(CCC3)C(=O)N(C)[C@@H](C3CCCC3)C(=O)N(C)[C@H](C(=O)N3CCOCC3)CC(=O)N(C)[C@@H](CC(C)C)C(=O)N[C@@H]([C@@H](C)CC)C(=O)N(C)CC(=O)N(C)[C@H]3CCCCCN(C3=O)[C@@H](Cc3ccc(F)cc3OC)C(=O)N(C)CC(=O)N[C@@H](CCc3cc(F)c(C(F)(F)F)c(F)c3)C(=O)N2C1 [PP0924]
NRAS/KRAS (ratio of KD value with respect to NRAS to KD value with respect to KRAS) ([1]; KD ratio): B (a compound having 3 or more and less than 10 is denoted as B)
HRAS/KRAS (ratio of KD value with respect to HRAS to KD value with respect to KRAS) ([2]; KD ratio): B (a compound having 3 or more and less than 10 is denoted as B)

CCCN1C(=O)[C@@H]2CCN2C(=O)[C@H](C)N(C)C(=O)[C@H](C2CCC2)NC(=O)[C@H](CC(C)C)N(C)C(=O)C[C@@H](C(=O)N2CCOCC2)N(C)C(=O)[C@H](C2CCCC2)N(C)C(=O)C2(CCCC2)NC(=O)[C@@H]2CCCN2C(=O)[C@H](CCc2ccc(C(F)(F)F)c(Cl)c2)NC(=O)CN(C)C(=O)[C@@H]1Cc1ccc(C(F)(F)F)cc1 [PP0271] ([NMeL][Gly(cBu)][NMeA][Aze][NPrPhe(4-CF3)][Sar][hPhe(3-Cl-4-CF3)]P[Ac5c][NMeGly(cPent)][NMeD]-Morpholide; lactam N-11)
NRAS/KRAS (ratio of KD for GDP-bound NRAS wild-type to KD for KRAS) ([1]; KD ratio NRAS/KRAS): C (A compound having a KD ratio of 0.1 or more and less than 3 is denoted as C)
HRAS/KRAS (ratio of KD for GDP-bound HRAS wild-type to KD for KRAS) ([2]; KD ratio HRAS/KRAS): B (a compound having 3 or more and less than 10 is denoted as B)

CCCOC[C@H]1C(=O)N[C@@H]([C@@H](C)CC)C(=O)N(C)CC(=O)N(C)[C@H]2C/C=C\CCN(C2=O)[C@@H](Cc2ccc(C(F)(F)F)cc2)C(=O)N(C)CC(=O)N[C@@H](CCc2ccc(C(F)(F)F)c(OC)c2)C(=O)N2C[C@H](OCC)C[C@H]2C(=O)NC2(CC(C)(C)C2)C(=O)N(C)[C@@H](C2CCCC2)C(=O)N(C)[C@H](C(=O)N(C)CC)CC(=O)N1C [PP1973]
NRAS/KRAS (ratio of KD value for NRAS to KD value for KRAS) ([1]; KD ratio): A (a compound having 10 or more and less than 20 is denoted as A)
HRAS/KRAS (ratio of KD value for HRAS to KD value for KRAS) ([2]; KD ratio): B (a compound having 3 or more and less than 10 is denoted as B)

CCC[C@H]1C(=O)N[C@@H](CC(C)C)C(=O)N(C2CC2)CC(=O)N(C)[C@H]2C/C=C\CCN(C2=O)[C@@H](Cc2ccc(C)cc2)C(=O)N(C)CC(=O)N[C@@H](CCc2ccc(C(F)(F)F)c(OC)c2)C(=O)N2C[C@H](OCC)C[C@H]2C(=O)NC2(CC(C)(C)C2)C(=O)N(C)[C@@H](C2CCCC2)C(=O)N(C)[C@H](C(=O)N(C)C)CC(=O)N1C [PP2510]
NRAS/KRAS (ratio of KD value with respect to NRAS to KD value with respect to KRAS) [1]: A (a compound having 10 or more and less than 20 is denoted as A)
HRAS/KRAS (ratio of KD value with respect to HRAS to KD value with respect to KRAS) [2]: B (a compound having 3 or more and less than 10 is denoted as B)

CCCN(C)C(=O)[C@@H]1CC(=O)N(C)[C@@H](COCC)C(=O)N[C@@H]([C@@H](C)CC)C(=O)N(C)CC(=O)N(C)[C@H]2C/C=C\CCN(C2=O)[C@@H](Cc2ccc(C(F)(F)F)cc2)C(=O)N(C)CC(=O)N[C@@H](CCc2ccc(C(F)(F)F)c(OC)c2)C(=O)N2C[C@@H](C)C[C@H]2C(=O)NC2(CCC2)C(=O)N(C)[C@@H](C2CCCC2)C(=O)N1C [PP2025]
NRAS/KRAS (ratio of KD value for NRAS to KD value for KRAS) ([1]; KD ratio): A (a compound having 10 or more and less than 20 is denoted as A)
HRAS/KRAS (ratio of KD value for HRAS to KD value for KRAS) ([2]; KD ratio): B (a compound having 3 or more and less than 10 is denoted as B)

CCO[C@@H]1C[C@H]2C(=O)N(C)C3(CC(C)(C)C3)C(=O)N(C)[C@@H](C3CCCC3)C(=O)N(C)[C@H](C(=O)N(C)C)CC(=O)N(C)[C@H]3CCCCCc4ccc(cc4)C[C@@H](C(=O)N(C)CC(=O)N[C@@H](CCc4ccc(C(F)(F)F)c(OC)c4)C(=O)N2C1)N1CC/C=C\C[C@@H](C1=O)N(C)C(=O)CN(C)C(=O)[C@H]([C@@H](C)CC)NC3=O [PP3091]
NRAS/KRAS (ratio of KD value with respect to GDP-bound NRAS wild-type protein to KD value with respect to KRAS) ([1]; KD ratio NRAS/KRAS, GDP-bound wild-type proteins): A (a compound having 10 or more and less than 20 is denoted as A)
HRAS/KRAS (ratio of KD value with respect to GDP-bound HRAS wild-type protein to KD value with respect to KRAS) ([2]; KD ratio HRAS/KRAS, GDP-bound wild-type proteins): B (a compound having 3 or more and less than 10 is denoted as B)

CCCN1C(=O)[C@@H]2CCN2C(=O)[C@H](C)N(C)C(=O)[C@H]([C@@H](C)CC)NC(=O)[C@H](CC(C)C)N(C)C(=O)C[C@@H](C(=O)N2CCOCC2)N(C)C(=O)[C@H](C2CCCC2)N(C)C(=O)C2(CCC2)NC(=O)[C@@H]2CCCN2C(=O)[C@H](CCc2ccc(C(F)(F)F)c(Cl)c2)NC(=O)CN(C)C(=O)[C@@H]1COCCC(C)C [PP1819] ([NMeL]I[NMeA][Aze][X4][Sar][hPhe(3-Cl-4-CF3)]P[Ac4c][NMeGly(cPent)][NMeD]-Morpholide; lactam N-11)
NRAS/KRAS (ratio of KD value for NRAS to KD value for KRAS) ([1]; KD ratio): C (A compound having a KD ratio of 0.1 or more and less than 3 is denoted as C)
HRAS/KRAS (ratio of KD value for HRAS to KD value for KRAS) ([2]; KD ratio): C (A compound having a KD ratio of 0.1 or more and less than 3 is denoted as C)

Reference: patent publication US20250230193A1, “CYCLIC COMPOUND HAVING SELECTIVE KRAS INHIBITORY EFFECT ON HRAS AND NRAS” (CHUGAI SEIYAKU KABUSHIKI KAISHA, priority 2022, published 2025)
